# Experimental data reported in patent US7495028B2, “R-bambuterol, its preparation and therapeutic uses” (priority 2002, dated 2009).
# Test system: conscious guinea pigs exposed to aerosol histamine
# Assay: Protection against histamine-evoked asthma in conscious guinea pigs
# Type: in vivo, guinea pig
# Settings: for Collapsed n: 8 animals; for % collapse / Latency time of collapse: dose-response, four hours before exposure
# Description: Test methods: Guinea pigs (Dunki-Hartley strain, 190±30 g) were fasted overnight but given water ad libidum. The animals were restrained individually in a glass chamber and exposed to aerosol histamine generated by a nebulizer from a 0.2% aqueous solution of histamine under constant pressure at dose of 0.5 ml/min for a period of 15 sec. The animal was removed from the chamber, and its behavior was monitored. A sign of collapse and the latency time from exposure to collapse were recorded. Only the animals with latency time less than 120 sec, as an indication of sensitive to histamine, were chosen for later experiments. The animals chosen were allowed to recover completly by resting for 24 hours before experiments. Test compounds and racemic bambuterol hydrochloride were dissolved in saline.
# Time course of the effect of test compounds: R-Bambuterol hydrochloride or racemic bambuterol hydrochloride at 2, 4 and 8 mg/kg, and vehicle alone, were administered to the guinea pigs orally via a stomach tube. Exposure of treated animals to aerosol histamine (as above) was done at 1, 4 and 24 hours after treatment. For each experimental group, there were a total of 8 animals with equal number of both sexes, and no repeated exposure was made for individual experimental animals.
# Study of dose-response of test compounds: Four hours before the exposure to aerosol histamine, animals were randomized into groups (n=8, equal male and female), and given R-bambuterol hydrochloride or racemic bambuterol in doses of 0.25, 0.5, 1.0, 2.0, 4.0 and 8.0 mg/kg, and vehicle control, orally via a stomach tube. The numbers of collapsed animal as a result of asthmatic reaction to aerosol histamine were counted, and the latency times were recorded. Both of these parameters were used as quantitative measurements of the protective effects of the treatments on bronchospasm evoked by aerosol histamine.
smiles,measurement,setting,value
"CN(C)C(=O)Oc1cc(OC(=O)N(C)C)cc(C(O)CNC(C)(C)C)c1 (stereo not drawn) [RS-bambuterol, bambuterol]",Collapsed %,"2 mg/kg oral, 1st Hour",75.0%
same,Latency,"2 mg/kg oral, 1st Hour",168 ± 61 s
same,Collapsed n,"2 mg/kg oral, 1st Hour",6.0
same,Collapsed %,"2 mg/kg oral, 4th Hour",50.0%
same,Latency,"2 mg/kg oral, 4th Hour",227 ± 56 s
same,Collapsed n,"2 mg/kg oral, 4th Hour",4.0
same,Collapsed %,"2 mg/kg oral, 24th Hour",50.0%
same,Latency,"2 mg/kg oral, 24th Hour",208 ± 65 s
same,Collapsed n,"2 mg/kg oral, 24th Hour",5.0
same,Collapsed %,"4 mg/kg oral, 1st Hour",62.5%
same,Latency,"4 mg/kg oral, 1st Hour",199 ± 63 s
same,Collapsed n,"4 mg/kg oral, 1st Hour",5.0
same,Collapsed %,"4 mg/kg oral, 4th Hour",25.0%
same,Latency,"4 mg/kg oral, 4th Hour",299 ± 51 s
same,Collapsed n,"4 mg/kg oral, 4th Hour",2.0
same,Collapsed %,"4 mg/kg oral, 24th Hour",37.5%
same,Latency,"4 mg/kg oral, 24th Hour",287 ± 57 s
same,Collapsed n,"4 mg/kg oral, 24th Hour",3.0
same,Collapsed %,"8 mg/kg oral, 1st Hour",37.5%
same,Latency,"8 mg/kg oral, 1st Hour",260 ± 66 s
same,Collapsed n,"8 mg/kg oral, 1st Hour",3.0
same,Collapsed %,"8 mg/kg oral, 4th Hour",0.0%
same,Latency,"8 mg/kg oral, 4th Hour",>360 s
same,Collapsed n,"8 mg/kg oral, 4th Hour",0.0
same,Collapsed %,"8 mg/kg oral, 24th Hour",25.0%
same,Latency,"8 mg/kg oral, 24th Hour",303 ± 54 s
same,Collapsed n,"8 mg/kg oral, 24th Hour",2.0
same,% collapse,0.25 mg/kg oral,100%
same,Latency time of collapse,0.25 mg/kg oral,61 s
same,% collapse,0.5 mg/kg oral,87.5%
same,Latency time of collapse,0.5 mg/kg oral,114 s
same,% collapse,1 mg/kg oral,75%
same,Latency time of collapse,1 mg/kg oral,151 s
same,% collapse,2 mg/kg oral,50%
same,Latency time of collapse,2 mg/kg oral,227 s
same,% collapse,4 mg/kg oral,25%
same,Latency time of collapse,4 mg/kg oral,299 s
same,% collapse,8 mg/kg oral,0%
same,Latency time of collapse,8 mg/kg oral,>360 s
same,Duration of protective effects,oral 2 to 8 mg/kg,24 h
same,Onset of protective effects after administration,oral 2 to 8 mg/kg,one
same,Time of maximum protective effects after administration,oral 2 to 8 mg/kg,4 h
same,Dose at which full protective effect was seen,"oral, collapse after aerosol histamine",8 mg/kg
same,ED50 (protection against collapse),"oral, four hours before aerosol histamine",1.68 mg/kg
same,Dose at which maximum effects on latency were seen,"oral, latency time to collapse",8 mg/kg
